Ends that are not written are not given here.
Experiments:
[1] = tested on: chloroplasts in Arabidopsis leaves; test: Confocal colocalization of nanomaterials with chloroplasts after foliar spray; type: in vivo, Arabidopsis thaliana
Procedure: In Vivo Imaging of Chloroplast Targeted Nanomaterials. Confocal fluorescence microscopy imaging was used to determine the colocalization between chloroplasts in Arabidopsis leaves and both targeted and nontargeted β-CDs and CY3-ds(GT)15 (SEQ ID NO: 6) DNA coated SWCNT (FIG. 3A,B). Nanomaterials were foliar sprayed on whole plants in a formulation containing 0.1% Silwet (v/v) (Table 1). Control confocal images of leaves treated with only 10 mM TES buffer have no background autofluorescence in CD and CY3-ds(GT)15 (SEQ ID NO: 6) DNA emission channels (FIG. 12). The level of colocalization of fluorescent emission from nanocarriers with chloroplasts was determined by Manders' coefficient analysis (COLOC2, ImageJ) (FIG. 3C). The localization of targeted nanomaterials (TP-β-CD and TP-CY3-ds(GT)15-SWCNT) with chloroplasts in leaf mesophyll cells was higher compared to nontargeted materials lacking the targeting peptide (β-CD and CY3-ds(GT)15-SWCNT). […] Previously, we reported an in vivo increase in colocalization of chloroplasts with heavy-metal-based quantum dots functionalized with chloroplast targeting biorecognition peptides,^16 indicating the robustness of this approach for a variety of targeted nanomaterials. […]
Confocal Fluorescence Microscopy. […]

[2] = tested on: plant cell membranes; test: Plant cell membrane intactness (PI staining, confocal); type: in vivo, Arabidopsis thaliana; details: after 5 days of exposure; 20 mg/L / 2 mg/L
Excerpt: Interactions of Targeted Carbon Nanostructures with Plant Cell and Chloroplast Membranes. Damage to plant lipid membranes may cause ion and molecule permeability changes across the membrane, interruption of metabolic processes, intracellular signaling, and trafficking of biomolecules.^65,66 The application of targeted nanostructures with high charge allows penetration of plant cell barriers and localization inside organelles that could cause disruption in lipid membrane integrity. Plant cell membrane intactness in leaves treated with TP-β-CDs or TP-pATV1-SWCNTs (Table 1) was assessed by staining dead cells with propidium iodide (PI) dye followed by imaging under confocal microscopy (FIG. 7A). PI is a nonpermeable dye that only crosses the cell membranes when they are damaged. The overall percentage of intact cells without PI stained nuclei was calculated relative to the total number of cells (FIG. 7B). […] Both TP-β-CDs and TP-pATV1-SWCNTs maintained more than 93% of plant cells with intact membranes after 1 and 5 days of exposure, similar to controls without nanoparticles (FIG. 7B). […]
The percentage of intact cells was determined in Arabidopsis thaliana leaf tissues treated with TP-β-CD (20, 100, 500 mg/L) or TP-pATV1-SWCNT (2, 5, 10 mg/L) from one to five days. […] The total number of cells was determined using chloroplast autofluorescence to identify the leaf mesophyll cell boundaries. […]

[3] = tested on: whole plant cell DNA; details: in vivo
Procedure: DNA was extracted from plant leaf tissue and prepared using a Quick-DNA Plant/Seed DNA Miniprep kit (Zymo) in leaf samples treated with nanomaterials from one to five days. Each DNA sample contained 150 mg of plant tissue or 1 mL of isolated chloroplast suspension collected as explained above. Samples were placed in liquid nitrogen-filled mortar and pestle, ground, and placed directly into a Zymo BashingBead Lysis Tube with 750 μL BashingBead Buffer. The mixture was homogenized on a mixer mill (Retsch MM 400) for 10 minutes at 28 Hz. The DNA extraction was performed according to the manufacturer's instructions (zymoresearch.com) and concentrations were measured using a Nanodrop ND-1000 Spectrophotometer. Samples were stored at −20° C. until used for the 8-OHdG DNA damage biomarker assay.
We determined the amount of oxidative DNA damage in plant leaves treated with nanomaterials for one day or five days using an enzyme-linked immunosorbent assay (ELISA) for 8-hydroxydeoxyguanosine (8-OHdG). The OxiSelect™ Oxidative DNA Damage ELISA Kit (Cat# STA-320, Cell Biolabs, inc.) quantifies the amount of 8-OHdG in isolated DNA samples from plant leaf tissue or isolated chloroplast suspensions. […] Sample absorbance was read at 450 nm on an Infinite MPlex plate reader (Tecan).

TP-β-CD: carbon dots with β-cyclodextrin molecular baskets covalently bonded to chloroplast targeting peptide MASSMLSSATMVGGC (SEQ ID NO:5) (also: covalently bonded to carbon dots with β-cyclodextrin, site not given here)
colocalization rates of nanomaterials with chloroplasts ([1]; foliar spray, CD 20 mg/L, ds(GT)15-SWCNT 2 mg/L, Manders' coefficient, FIG. 3C): 70.0±9.46% | delivery, % of chloroplasts in leaves ([1]; summary of Example 1): 70% | cell and chloroplast membrane damage [2]: no permanent cell and chloroplast membrane damage | increase in oxidative damage to whole plant cell DNA [3]: 2 fold

— patent US20230313217A1, “CHLOROPLAST TARGETING PEPTIDES AND CONJUGATES AND COMPOSITIONS THEREOF” (The Regents of the University of California, priority 2021, published 2023)
